Data from patent US9296716B2, “Androgen receptor ligands” (THE PROVOST, FELLOWS, FOUNDATION SCHOLARS, & THE OTHER …, priority 2011, dated 2016).

Assays:
Type in all cases: biochemical
AR-LBD wt = biological target: T1, AR-LBD wt (Homo sapiens, UniProt P10275); assay: Lanthascreen TR-FRET AR coactivator (D11-FxxLF) assay, AR-LBD wt; conditions: for type of AR antagonism (full / partial): TR-FRET in agonist and antagonist mode; for IC50: TR-FRET, D11-FxxLF peptide, DHT = EC80, read-out: Activity (AR wt TR-FRET)
T1 sequence (P10275 669-900 limits assumed): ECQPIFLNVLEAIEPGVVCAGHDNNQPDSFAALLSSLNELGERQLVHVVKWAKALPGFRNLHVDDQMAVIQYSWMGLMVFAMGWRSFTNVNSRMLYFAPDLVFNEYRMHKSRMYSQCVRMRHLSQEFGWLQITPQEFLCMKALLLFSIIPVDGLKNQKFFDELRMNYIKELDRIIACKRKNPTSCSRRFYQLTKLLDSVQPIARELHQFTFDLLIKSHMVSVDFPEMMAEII

[1] = biological target: T2, Glucocorticoid Receptor (GR) LBD (Homo sapiens, UniProt P04150); assay: TR-FRET SRC1-4 coactivator recruitment assay, GR LBD; conditions: Dexamethasone = EC80; for effect on SRC1-4 recruitment by GR LBD: 100 μM to 12.5 μM or single point 100 μM; for IC50: TR-FRET, ± SEM (n = 6), read-out: NR LBDs IC50 (μM) GR
T2 construct: purchased Invitrogen PV4683
T2 sequence (P04150 524-758 limits assumed): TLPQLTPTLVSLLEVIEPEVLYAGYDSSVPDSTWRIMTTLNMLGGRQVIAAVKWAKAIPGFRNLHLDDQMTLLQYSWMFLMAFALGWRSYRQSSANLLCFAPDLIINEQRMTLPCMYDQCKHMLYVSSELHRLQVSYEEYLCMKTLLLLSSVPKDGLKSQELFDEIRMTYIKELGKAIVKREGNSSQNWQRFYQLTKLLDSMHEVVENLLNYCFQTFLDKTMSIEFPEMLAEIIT
Procedure: (§1) Compound binding affinities for Progesterone Receptor (PR), Glucocorticoid Receptor (GR), Estrogen Receptor alpha and Estrogen Receptor beta were determined using TR-FRET (Table 2).
Dexamethasone bound receptor recruitment of the fluorescently labelled SCR1-4 coactivator was unimpaired at screening concentrations up to 100 μM for all the diarylhydrazides evaluated (FIG. 5).
(§2) Lanthascreen TR-FRET AR Coactivator Assay kit (Invitrogen, cat no. PV4381) was used to screen for potential coactivator disruptors.
(§3) TR FRET values were calculated at 10 flashes per well, using a delay time of 100 μs and integration time 200 μs as recommended by the Invitrogen assay guidelines. […] A serial dilution of compounds was firstly prepared in 100×DMSO (Sigma-Aldrich) starting from the maximum desired concentration to achieve a 12 point range concentration using 96-well polypropylene plates (Nalgene Nunc, Rochester, N.Y.). Each 100× solution was diluted to 2× concentration with TR-FRET co-regulator buffer A (Invitrogen proprietary buffer), yielding a final concentration of 1% DMSO in each well.
(§4) D11-FxxLF and Tb antibody were premixed in light protecting vials prior to use. A final concentration of DTT 5 mM was used in the assay buffer in order to prevent protein degradation. All plates (agonist and antagonist mode) were incubated between 2 and 4 hours at room temperature protected from light prior to TR-FRET measurement. […] Data was fitted using the sigmoidal dose response (variable slope) available from Graphpad Prism 5. Y=Bottom+(Top-Bottom)/(1+10^((Log IC50−X)*HillSlope))
(§5) The same procedure was used for AR T877A (Invitrogen cat no. PV4667), PR (Invitrogen cat no. PV4666), ER-α (Invitrogen cat no. PV4544), ER-β (Invitrogen cat no. PV4541) and GR (Invitrogen cat no. PV4683). The assay was adapted to exclude possible non-specific aggregation mechanism of inhibition by adding very low concentration of detergent Triton X-100 (0.001%) to the assay buffer following the Shoichet review guidelines [Shoichet BK (2006) Screening in a spirit haunted world. Drug Discov Today 11:607-615].

[2] = biological target: T3, Progesterone Receptor (PR) LBD (Homo sapiens, UniProt P06401); assay: TR-FRET SRC1-4 coactivator recruitment assay, PR LBD; conditions: Progesterone = EC80; for IC50: TR-FRET, ± SEM (n = 6), read-out: NR LBDs IC50 (μM) PR; for effect on PR LBD recruitment of fluorescent labelled SRC1-4 coactivator: maximal concentration of 100 μM
T3 construct: purchased Invitrogen PV4666
T3 sequence (P06401 679-913 limits assumed): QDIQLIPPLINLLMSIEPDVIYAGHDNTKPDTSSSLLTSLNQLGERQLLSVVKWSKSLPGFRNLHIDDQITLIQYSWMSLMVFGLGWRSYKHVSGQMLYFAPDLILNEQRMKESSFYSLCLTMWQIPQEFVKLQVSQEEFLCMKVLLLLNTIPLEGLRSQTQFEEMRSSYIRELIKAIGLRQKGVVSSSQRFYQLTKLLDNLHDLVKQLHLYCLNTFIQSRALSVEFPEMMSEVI
Procedure: as §1, §2, §3, §4, §5

[3] = biological target: T4, Estrogen Receptor alpha (ER-α) LBD (Homo sapiens, UniProt P03372); assay: TR-FRET PGC1-α coactivator recruitment assay, ERα LBD; conditions: Estradiol = EC80; for IC50: TR-FRET, ± SEM (n = 6), read-out: NR LBDs IC50 (μM) ER-α; for effect on ERα LBD recruitment of fluorescent labelled PGC1-α coactivator: maximal concentration of 100 μM
T4 sequence (P03372 311-547 limits assumed): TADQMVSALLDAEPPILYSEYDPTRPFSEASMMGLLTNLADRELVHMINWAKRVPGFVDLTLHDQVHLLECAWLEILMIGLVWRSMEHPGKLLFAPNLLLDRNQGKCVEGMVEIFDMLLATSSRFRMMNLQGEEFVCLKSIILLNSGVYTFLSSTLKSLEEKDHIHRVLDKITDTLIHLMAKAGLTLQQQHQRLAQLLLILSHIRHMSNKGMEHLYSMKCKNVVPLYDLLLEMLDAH
Procedure: as §1
(§6) Selectivity of the diarylhydrazide scaffold for the AR was determined through a TR-FRET assay in ERα (FIGS. 8A & 9A1) and ERR (FIGS. 8B & 9A2). […] The non-LBP nature of this inhibition was confirmed by a FP assay (FIGS. 9C, 9B1 & 9B2).
as §2, §3, §4, §5

[4] = biological target: Estrogen Receptor beta (ER-β) LBD (Homo sapiens, UniProt Q92731); assay: TR-FRET PGC1-α coactivator recruitment assay, ERβ LBD; conditions: Estradiol = EC80; for IC50: TR-FRET, ± SEM (n = 6), read-out: NR LBDs IC50 (μM) ER-β; for effect on ERβ LBD recruitment of fluorescent labelled PGC1-α coactivator: maximal concentration of 100 μM
Procedure: as §1, §6, §2, §3, §4, §5

Sequence of Estrogen Receptor beta (ER-β) LBD (Q92731 264-498 limits assumed): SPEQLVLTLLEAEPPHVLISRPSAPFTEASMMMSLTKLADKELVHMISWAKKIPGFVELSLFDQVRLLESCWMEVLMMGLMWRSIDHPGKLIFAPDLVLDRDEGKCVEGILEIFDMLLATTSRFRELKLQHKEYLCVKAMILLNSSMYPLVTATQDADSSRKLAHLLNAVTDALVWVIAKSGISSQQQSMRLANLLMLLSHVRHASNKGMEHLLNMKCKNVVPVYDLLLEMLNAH

SMILES | type of AR antagonism (full / partial) (AR-LBD wt) | IC50 (AR-LBD wt) [µM] | effect on SRC1-4 recruitment by GR LBD [1] | IC50 [1] [µM] | IC50 [2] [µM] | effect on PR LBD recruitment of fluorescent labelled SRC1-4 coactivator [2] | IC50 [3] [µM] | effect on ERα LBD recruitment of fluorescent labelled PGC1-α coactivator [3] | IC50 [4] [µM] | effect on ERβ LBD recruitment of fluorescent labelled PGC1-α coactivator [4] | effect on PR recruitment of fluorescent labelled SRC1-4 ([2]; 100 μM to 45 nM) | effect on ERα recruitment of fluorescent labelled PGC1-α ([3]; 100 μM to 45 nM) | effect on ERβ recruitment of fluorescent labelled PGC1-α ([4]; 100 μM to 45 nM)
O=C(N/N=C/c1cccc(Cl)c1)c1cc2ccccc2cc1O [MDG491] | full AR antagonists | 42.7 ± 3.5 | do not affect | > 100 | 50 to 100 | inhibit | > 100 | inhibit | > 100 | inhibit |  |  | 
CCCOc1ccc(/C=N/NC(=O)c2cc3c(ccc4ccccc43)o2)cc1 [MDG508] | full AR antagonists |  | do not affect | > 100 | 5.9 |  | 4 ± 1.4 |  | 2.9 |  | partially inhibit | partially inhibit | partially inhibit
O=C(N/N=C/c1cc(Cl)ccc1O)c1cc2ccccc2cc1O [MDG605] | full AR antagonists | 10.3 ± 1.4 | do not affect | > 100 |  | inhibit | 50 to 100 | inhibit | 50 to 100 | inhibit |  |  | 
O=C(N/N=C/c1ccccc1O)c1cc2ccccc2cc1O [MDG608] | full AR antagonists | 55.2 ± 19.2 | do not affect | > 100 | > 100 | inhibit | > 100 | inhibit |  | inhibit |  |  | 
O=C(N/N=C/c1cc(O)ccc1O)c1cc2ccccc2cc1O [MDG611] | full AR antagonists | 39.9 ± 16.9 | do not affect | > 100 |  | inhibit |  | inhibit |  | inhibit |  |  | 
COc1ccc(O)c(/C=N/NC(=O)c2cc3ccccc3cc2O)c1 [MDG612] | full AR antagonists | 52.9 ± 13.5 | do not affect | > 100 | 50 to 100 | inhibit |  | inhibit |  | inhibit |  |  | 
O=C(N/N=C/c1cc([N+](=O)[O-])ccc1O)c1cc2ccccc2cc1O [MDG614] | full AR antagonists | 33.4 ± 4.7 | do not affect | > 100 |  | inhibit | > 100 | inhibit | > 100 | inhibit |  |  | 
Cc1cccc(/C=N/NC(=O)c2cc3ccccc3cc2O)c1O [MDG616] | full AR antagonists | 13.2 ± 2.8 | do not affect | > 100 |  | inhibit |  | inhibit |  | inhibit |  |  | 
COc1cccc(/C=N/NC(=O)c2cc3ccccc3cc2O)c1O [MDG617] | full AR antagonists | 12.2 ± 0.5 | do not affect | > 100 |  | inhibit |  | inhibit |  | inhibit |  |  | 
COC(=O)c1ccc(O)c(/C=N/NC(=O)c2cc3ccccc3cc2O)c1 [MDG629] | full AR antagonists | 60.8 | do not affect | > 100 |  | inhibit |  | inhibit |  | inhibit |  |  | 
O=C(O)c1ccc(O)c(/C=N/NC(=O)c2cc3ccccc3cc2O)c1 [MDG630] | full AR antagonists | 43.5 ± 3.7 | do not affect | > 100 |  | inhibit |  | inhibit |  | inhibit |  |  | 
